Species on record: Homo sapiens
Test: Ratio of IC50 for inhibition of [35S]-MK-499 binding to human ERG channel to IC50 for inhibition of cell based CGRP-stimulated cAMP production
Conditions: not given

Structure (SMILES)	Ratio IC50
CC(C)(OCC(F)(F)F)c1cnc2n1C[C@H](c1cccc(F)c1F)CC[C@H]2NC(=O)N1CCC2(CC1)OC(=O)Nc1ncccc12	6100
COCc1cnc2n1C[C@H](c1cccc(F)c1F)CC[C@H]2NC(=O)N1CCC2(CC1)C(=O)Nc1ncccc12	9500

System: not listed separately
Test: Oral bioavailability in rat at 10 mg/kg, po administered as a solution in 1:1 imwitor:tween
Type: ADME, organism-based
Conditions: in vivo

Structure (SMILES)	bioavailability
COCc1cnc2n1C[C@H](c1cccc(F)c1F)CC[C@H]2NC(=O)N1CCC2(CC1)C(=O)Nc1ncccc12	21%

Biological target: T1, Calcitonin gene-related peptide type 1 receptor (Homo sapiens, UniProt O60894+Q16602)
Test: Antagonist activity at CGRP receptor assessed as inhibition of CGRP-stimulated cAMP production by cell based assay in presence of 50% human serum
Type: functional
Conditions: not given

T1 sequence (Q16602 whole entry, one chain of several): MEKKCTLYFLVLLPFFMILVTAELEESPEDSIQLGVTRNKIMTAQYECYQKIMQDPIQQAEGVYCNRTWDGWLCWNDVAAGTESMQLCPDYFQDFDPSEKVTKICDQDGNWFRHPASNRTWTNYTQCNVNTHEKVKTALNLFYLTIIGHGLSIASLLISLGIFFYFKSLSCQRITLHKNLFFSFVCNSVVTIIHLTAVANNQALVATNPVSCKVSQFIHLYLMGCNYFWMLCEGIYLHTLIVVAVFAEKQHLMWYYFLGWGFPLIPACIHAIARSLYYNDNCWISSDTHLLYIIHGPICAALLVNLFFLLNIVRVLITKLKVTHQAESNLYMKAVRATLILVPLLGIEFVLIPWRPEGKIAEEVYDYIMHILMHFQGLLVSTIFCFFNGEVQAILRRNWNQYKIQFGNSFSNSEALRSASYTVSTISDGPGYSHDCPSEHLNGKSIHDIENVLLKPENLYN

Structure (SMILES)	IC50
Cc1cn2c(n1)[C@H](NC(=O)N1CCC(n3c(=O)[nH]c4ncccc43)CC1)CC[C@@H](c1cccc(F)c1F)C2	28 nM
O=C(N[C@@H]1CC[C@@H](c2cccc(F)c2F)Cn2c(-c3ccccc3)cnc21)N1CCC(n2c(=O)[nH]c3ncccc32)CC1	34 nM
O=C(N[C@@H]1CC[C@@H](c2cccc(F)c2F)Cn2ccnc21)N1CCC(n2c(=O)[nH]c3ncccc32)CC1	19 nM
COC(C)(C)c1cnc2n1C[C@H](c1cccc(F)c1F)CC[C@H]2NC(=O)N1CCC(n2c(=O)[nH]c3ncccc32)CC1	0.61 nM
O=C(N[C@@H]1CC[C@@H](c2cccc(F)c2F)Cn2cc(CO)nc21)N1CCC(n2c(=O)[nH]c3ncccc32)CC1	26 nM
CNCCc1cnc2n1C[C@H](c1cccc(F)c1F)CC[C@H]2NC(=O)N1CCC(n2c(=O)[nH]c3ncccc32)CC1	15 nM
O=C(N[C@@H]1CC[C@@H](c2cccc(F)c2F)Cn2c(CO)cnc21)N1CCC(n2c(=O)[nH]c3ncccc32)CC1	12 nM
O=C(N[C@@H]1CC[C@@H](c2cccc(F)c2F)Cn2c(-c3nccs3)cnc21)N1CCC(n2c(=O)[nH]c3ncccc32)CC1	64 nM
O=C(N[C@@H]1CC[C@@H](c2cccc(F)c2F)Cn2cc(CC(F)(F)F)nc21)N1CCC(n2c(=O)[nH]c3ncccc32)CC1	33 nM
CC(C)c1cnc2n1C[C@H](c1cccc(F)c1F)CC[C@H]2NC(=O)N1CCC(n2c(=O)[nH]c3ncccc32)CC1	3.2 nM
CN(C)C(=O)c1cnc2n1C[C@H](c1cccc(F)c1F)CC[C@H]2NC(=O)N1CCC(n2c(=O)[nH]c3ncccc32)CC1	7.4 nM
COCc1cnc2n1C[C@H](c1cccc(F)c1F)CC[C@H]2NC(=O)N1CCC(n2c(=O)[nH]c3ncccc32)CC1	1.9 nM
CC(C)(OCC(F)(F)F)c1cnc2n1C[C@H](c1cccc(F)c1F)CC[C@H]2NC(=O)N1CCC2(CC1)OC(=O)Nc1ncccc12	13 nM
Cc1cnc2n1C[C@H](c1cccc(F)c1F)CC[C@H]2NC(=O)N1CCC(n2c(=O)[nH]c3ncccc32)CC1	12 nM
COCc1cnc2n1C[C@H](c1cccc(F)c1F)CC[C@H]2NC(=O)N1CCC2(CC1)C(=O)Nc1ncccc12	4.3 nM

Biological target: T1, Calcitonin gene-related peptide type 1 receptor
Test: Displacement of [125I]-CGRP from human recombinant CGRP receptor
Conditions: not given

Structure (SMILES)	Ki
Cc1cn2c(n1)[C@H](NC(=O)N1CCC(n3c(=O)[nH]c4ncccc43)CC1)CC[C@@H](c1cccc(F)c1F)C2	4 nM
O=C(N[C@@H]1CC[C@@H](c2cccc(F)c2F)Cn2c(-c3ccccc3)cnc21)N1CCC(n2c(=O)[nH]c3ncccc32)CC1	1.1 nM
O=C(N[C@@H]1CC[C@@H](c2cccc(F)c2F)Cn2ccnc21)N1CCC(n2c(=O)[nH]c3ncccc32)CC1	3.1 nM
COC(C)(C)c1cnc2n1C[C@H](c1cccc(F)c1F)CC[C@H]2NC(=O)N1CCC(n2c(=O)[nH]c3ncccc32)CC1	0.04 nM
O=C(N[C@@H]1CC[C@@H](c2cccc(F)c2F)Cn2cc(CO)nc21)N1CCC(n2c(=O)[nH]c3ncccc32)CC1	3.2 nM
CNCCc1cnc2n1C[C@H](c1cccc(F)c1F)CC[C@H]2NC(=O)N1CCC(n2c(=O)[nH]c3ncccc32)CC1	5.7 nM
O=C(N[C@@H]1CC[C@@H](c2cccc(F)c2F)Cn2c(CO)cnc21)N1CCC(n2c(=O)[nH]c3ncccc32)CC1	2.5 nM
O=C(N[C@@H]1CC[C@@H](c2cccc(F)c2F)Cn2c(-c3nccs3)cnc21)N1CCC(n2c(=O)[nH]c3ncccc32)CC1	1.1 nM
O=C(N[C@@H]1CC[C@@H](c2cccc(F)c2F)Cn2cc(CC(F)(F)F)nc21)N1CCC(n2c(=O)[nH]c3ncccc32)CC1	3.9 nM
CC(C)c1cnc2n1C[C@H](c1cccc(F)c1F)CC[C@H]2NC(=O)N1CCC(n2c(=O)[nH]c3ncccc32)CC1	0.69 nM
CN(C)C(=O)c1cnc2n1C[C@H](c1cccc(F)c1F)CC[C@H]2NC(=O)N1CCC(n2c(=O)[nH]c3ncccc32)CC1	2.8 nM
COCc1cnc2n1C[C@H](c1cccc(F)c1F)CC[C@H]2NC(=O)N1CCC(n2c(=O)[nH]c3ncccc32)CC1	0.38 nM
CC(C)(OCC(F)(F)F)c1cnc2n1C[C@H](c1cccc(F)c1F)CC[C@H]2NC(=O)N1CCC2(CC1)OC(=O)Nc1ncccc12	0.16 nM
Cc1cnc2n1C[C@H](c1cccc(F)c1F)CC[C@H]2NC(=O)N1CCC(n2c(=O)[nH]c3ncccc32)CC1	2.2 nM
COCc1cnc2n1C[C@H](c1cccc(F)c1F)CC[C@H]2NC(=O)N1CCC2(CC1)C(=O)Nc1ncccc12	0.62 nM

Biological target: T1, Calcitonin gene-related peptide type 1 receptor
Test: Antagonist activity at CGRP receptor assessed as inhibition of CGRP-stimulated cAMP production by cell based assay
Type: functional
Conditions: not given

Structure (SMILES)	IC50
Cc1cn2c(n1)[C@H](NC(=O)N1CCC(n3c(=O)[nH]c4ncccc43)CC1)CC[C@@H](c1cccc(F)c1F)C2	8.7 nM
O=C(N[C@@H]1CC[C@@H](c2cccc(F)c2F)Cn2c(-c3ccccc3)cnc21)N1CCC(n2c(=O)[nH]c3ncccc32)CC1	2.6 nM
O=C(N[C@@H]1CC[C@@H](c2cccc(F)c2F)Cn2ccnc21)N1CCC(n2c(=O)[nH]c3ncccc32)CC1	6.7 nM
COC(C)(C)c1cnc2n1C[C@H](c1cccc(F)c1F)CC[C@H]2NC(=O)N1CCC(n2c(=O)[nH]c3ncccc32)CC1	0.31 nM
O=C(N[C@@H]1CC[C@@H](c2cccc(F)c2F)Cn2cc(CO)nc21)N1CCC(n2c(=O)[nH]c3ncccc32)CC1	12 nM
CNCCc1cnc2n1C[C@H](c1cccc(F)c1F)CC[C@H]2NC(=O)N1CCC(n2c(=O)[nH]c3ncccc32)CC1	12 nM
O=C(N[C@@H]1CC[C@@H](c2cccc(F)c2F)Cn2c(CO)cnc21)N1CCC(n2c(=O)[nH]c3ncccc32)CC1	7.9 nM
O=C(N[C@@H]1CC[C@@H](c2cccc(F)c2F)Cn2c(-c3nccs3)cnc21)N1CCC(n2c(=O)[nH]c3ncccc32)CC1	3.6 nM
O=C(N[C@@H]1CC[C@@H](c2cccc(F)c2F)Cn2cc(CC(F)(F)F)nc21)N1CCC(n2c(=O)[nH]c3ncccc32)CC1	7.2 nM
CC(C)c1cnc2n1C[C@H](c1cccc(F)c1F)CC[C@H]2NC(=O)N1CCC(n2c(=O)[nH]c3ncccc32)CC1	0.62 nM
CN(C)C(=O)c1cnc2n1C[C@H](c1cccc(F)c1F)CC[C@H]2NC(=O)N1CCC(n2c(=O)[nH]c3ncccc32)CC1	4.1 nM
COCc1cnc2n1C[C@H](c1cccc(F)c1F)CC[C@H]2NC(=O)N1CCC(n2c(=O)[nH]c3ncccc32)CC1	0.63 nM
CC(C)(OCC(F)(F)F)c1cnc2n1C[C@H](c1cccc(F)c1F)CC[C@H]2NC(=O)N1CCC2(CC1)OC(=O)Nc1ncccc12	0.65 nM
Cc1cnc2n1C[C@H](c1cccc(F)c1F)CC[C@H]2NC(=O)N1CCC(n2c(=O)[nH]c3ncccc32)CC1	4.1 nM
COCc1cnc2n1C[C@H](c1cccc(F)c1F)CC[C@H]2NC(=O)N1CCC2(CC1)C(=O)Nc1ncccc12	1.7 nM

Reference: ChEMBL document CHEMBL1770088, “Orally bioavailable imidazoazepanes as calcitonin gene-related peptide (CGRP) receptor antagonists: discovery of MK-2918” (Bioorg Med Chem Lett, 2011)
